Reference: ChEMBL document CHEMBL1201862, “PubChem BioAssay data set” (2004)
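Briefly, cells in 96-well plates were exposed to five compound concentrations for 48 h, and endpoints were estimated by linear interpolation. The concentration for 50% growth inhibition is given as GI50.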 Active and inactive are the calls of the source. No stated cut-off is given here; in the data, active = GI50 up to about 1.1 µM and inactive = higher.

Experiments:
Test in all cases: NCI tumour cell line growth inhibition, 48 h
[1] = tested on: CCRF-CEM
[2] = tested on: SNB-19
[3] = tested on: OVCAR-8
[4] = tested on: KM12
[5] = tested on: DU-145
[6] = tested on: HCT-15
[7] = tested on: MDA-N
[8] = tested on: SR
[9] = tested on: HCT-116
[10] = tested on: MCF7
[11] = tested on: NCI/ADR-RES
[12] = tested on: PC-3
[13] = tested on: CAKI-1
[14] = tested on: SF-539
[15] = tested on: IGROV-1
[16] = tested on: UACC-62
[17] = tested on: HL-60
[18] = tested on: HT-29
[19] = tested on: SK-MEL-5
[20] = tested on: RPMI-8226
[21] = tested on: MDA-MB-435
[22] = tested on: COLO 205
[23] = tested on: A549
[24] = tested on: HOP-92
[25] = tested on: EKVX
[26] = tested on: NCI-H460
[27] = tested on: OVCAR-4
[28] = tested on: OVCAR-5
[29] = tested on: MDA-MB-231
[30] = tested on: M14
[31] = tested on: NCI-H23
[32] = tested on: ACHN
[33] = tested on: LOX IMVI
[34] = tested on: SK-MEL-2
[35] = tested on: T47D
[36] = tested on: SN12C
[37] = tested on: MOLT-4
[38] = tested on: U-251
[39] = tested on: UO-31
[40] = tested on: HOP-62
[41] = tested on: OVCAR-3
[42] = tested on: SK-MEL-28
[43] = tested on: BT-549
[44] = tested on: TK-10
[45] = tested on: SF-295
[46] = tested on: SK-OV-3
[47] = tested on: K562
[48] = tested on: NCI-H226
[49] = tested on: SW-620
[50] = tested on: A498
[51] = tested on: UACC-257
[52] = tested on: 786-0
[53] = tested on: Hs-578T
[54] = tested on: HCC 2998
[55] = tested on: Malme-3M
[56] = tested on: RXF 393
[57] = tested on: NCI-H522
[58] = tested on: SNB-75
[59] = tested on: SF-268

Measured: GI50

CC(C)(CC(=O)Nc1ccccc1)C(=O)O
inactive: [1] > 100 µM | [2] > 100 µM | [3] > 100 µM | [4] > 100 µM | [5] > 100 µM | [7] > 100 µM | [8] > 100 µM | [9] > 100 µM | [10] > 100 µM | [11] > 100 µM | [12] > 100 µM | [13] > 100 µM | [14] > 100 µM | [15] > 100 µM | [16] > 100 µM | [17] > 100 µM | [18] > 100 µM | [19] > 100 µM | [20] > 100 µM | [21] > 100 µM | [22] > 100 µM | [23] > 100 µM | [24] > 100 µM | [25] > 100 µM | [26] > 100 µM | [27] > 100 µM | [28] > 100 µM | [29] > 100 µM | [30] > 100 µM | [31] > 100 µM | [32] > 100 µM | [33] > 100 µM | [34] > 100 µM | [35] > 100 µM | [36] > 100 µM | [37] > 100 µM | [38] > 100 µM | [39] > 100 µM | [40] > 100 µM | [41] > 100 µM | [42] > 100 µM | [43] > 100 µM | [44] > 100 µM | [45] > 100 µM | [46] > 100 µM | [47] > 100 µM | [48] > 100 µM | [49] > 100 µM | [50] > 100 µM | [51] > 100 µM | [52] > 100 µM
> 100 µM: [6]

N=C(N)SCCc1ccccn1
inactive: [53] > 100 µM | [5] > 100 µM | [7] > 100 µM | [8] > 100 µM | [54] > 100 µM | [10] > 100 µM | [11] > 100 µM | [12] > 100 µM | [13] > 100 µM | [18] > 100 µM | [21] > 100 µM | [25] 89.3 µM | [29] 55.2 µM | [38] 51.2 µM | [43] > 100 µM | [44] > 100 µM | [45] > 100 µM | [47] > 100 µM | [51] > 100 µM

N=c1c2ccccc2nc2oc3ccc(Cl)cc3n12
inactive: [1] 43.9 µM | [2] 8.22 µM | [3] 9.66 µM | [4] > 100 µM | [53] 2.28 µM | [55] 10.8 µM | [56] 11.9 µM | [7] 65.6 µM | [8] 31.9 µM | [9] 10.6 µM | [54] > 100 µM | [11] 48.3 µM | [12] 33.1 µM | [13] 11.9 µM | [14] 15.5 µM | [15] 16.4 µM | [16] 37.7 µM | [18] 20.3 µM | [19] 37.8 µM | [20] 4.4 µM | [21] 71.3 µM | [22] 29.4 µM | [23] 12.9 µM | [25] 15.6 µM | [26] 25.8 µM | [27] 2.77 µM | [28] 19.8 µM | [29] 25.6 µM | [30] 9.4 µM | [31] 14.1 µM | [32] 11.5 µM | [33] 3.21 µM | [34] 20.6 µM | [36] 9.46 µM | [57] 17.3 µM | [37] 35.3 µM | [38] 5.38 µM | [39] 16.4 µM | [40] 5.81 µM | [58] 2.75 µM | [41] 13.9 µM | [42] 25.2 µM | [43] 36.6 µM | [59] 34.2 µM | [44] 20 µM | [45] 12.8 µM | [46] 13.1 µM | [47] 9.2 µM | [48] 17.8 µM | [49] 5.62 µM | [51] > 100 µM | [52] 3.94 µM
48 µM: [6]

C/C(Nc1ccc(Cl)cc1Cl)=C1/CCOC1=O
> 100 µM: [6]
inactive: [1] 25.3 µM | [2] 26.2 µM | [3] 48.3 µM | [4] > 100 µM | [53] 33.6 µM | [55] > 100 µM | [56] 13.5 µM | [5] > 100 µM | [8] > 100 µM | [9] > 100 µM | [54] > 100 µM | [10] > 100 µM | [11] 77.6 µM | [12] > 100 µM | [14] 25.7 µM | [15] > 100 µM | [16] 63.7 µM | [17] 56.5 µM | [18] > 100 µM | [19] > 100 µM | [20] > 100 µM | [21] > 100 µM | [22] > 100 µM | [23] 78.7 µM | [24] 22.8 µM | [25] 10.4 µM | [26] 89.5 µM | [27] > 100 µM | [29] 19.9 µM | [31] 59.3 µM | [32] 92.9 µM | [33] > 100 µM | [35] 46.5 µM | [36] 41.5 µM | [57] 86.5 µM | [37] 87.3 µM | [38] 27.2 µM | [39] 40.8 µM | [40] 27 µM | [58] 36.9 µM | [41] > 100 µM | [42] > 100 µM | [43] 24.1 µM | [59] 30.8 µM | [44] 56.4 µM | [45] 26.6 µM | [47] > 100 µM | [48] > 100 µM | [49] > 100 µM | [50] 59.8 µM | [51] > 100 µM | [52] 40.4 µM

CCOC(=O)c1cc(C2CCN(Cc3ccccc3)C2=S)c(C(=O)C=[N+]=[N-])[nH]1 (stereo unspecified)
19.5 µM: [6]
inactive: [1] 13.4 µM | [2] 28.8 µM | [3] 37.3 µM | [4] 55.5 µM | [53] 45.6 µM | [55] 28.7 µM | [56] 31 µM | [5] 33.4 µM | [7] 21.1 µM | [9] 40.5 µM | [54] 49.7 µM | [10] 14.6 µM | [11] 24.5 µM | [12] 27.4 µM | [13] 68.5 µM | [15] 24.7 µM | [16] 18.3 µM | [18] 31.5 µM | [19] 19.3 µM | [20] 45.9 µM | [21] 40.1 µM | [22] 33.8 µM | [23] 26.4 µM | [24] 21.3 µM | [25] 26.7 µM | [26] 23.9 µM | [27] 54.7 µM | [28] 30.3 µM | [29] 33.1 µM | [30] 20.1 µM | [31] 21.7 µM | [32] 27.2 µM | [34] 21.2 µM | [57] 20.7 µM | [37] 30.4 µM | [38] 25.3 µM | [39] 18.8 µM | [40] 51.4 µM | [58] 29.4 µM | [41] 17.5 µM | [42] 26 µM | [43] 26.9 µM | [59] 25.8 µM | [44] 35.9 µM | [45] 20.5 µM | [46] > 100 µM | [47] 64.6 µM | [49] 38.6 µM | [50] 77.4 µM | [51] 25.8 µM | [52] 28.1 µM

CC1(C)CC(=O)C(=CNC(=S)c2ccccc2)C(=O)C1
inactive: [1] 27 µM | [2] > 100 µM | [3] > 100 µM | [4] > 100 µM | [53] > 100 µM | [5] > 100 µM | [7] > 100 µM | [9] > 100 µM | [54] > 100 µM | [10] > 100 µM | [11] > 100 µM | [12] > 100 µM | [13] > 100 µM | [14] > 100 µM | [15] > 100 µM | [16] > 100 µM | [17] 32.3 µM | [18] > 100 µM | [19] > 100 µM | [21] > 100 µM | [22] > 100 µM | [23] > 100 µM | [24] > 100 µM | [25] > 100 µM | [26] > 100 µM | [27] > 100 µM | [28] > 100 µM | [29] > 100 µM | [30] > 100 µM | [31] > 100 µM | [32] > 100 µM | [33] > 100 µM | [34] > 100 µM | [36] > 100 µM | [57] > 100 µM | [37] 13.6 µM | [38] > 100 µM | [39] > 100 µM | [40] > 100 µM | [58] > 100 µM | [41] > 100 µM | [42] > 100 µM | [43] > 100 µM | [59] > 100 µM | [44] > 100 µM | [45] > 100 µM | [46] > 100 µM | [48] > 100 µM | [49] > 100 µM | [51] > 100 µM | [52] > 100 µM
> 100 µM: [6]
